Test results from PubChem BioAssay (NCI).
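96-well plates; 48 h exposure; 5 concentrations. Endpoints by linear interpolation between flanking doses. Not reached: highest tested concentration assigned. TGI: total growth inhibition.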

Key:
Assay in all cases: growth of human tumour cells (NCI), 48 h
A498 renal = tested on: A498 renal
HCT-15 colon = tested on: HCT-15 colon
IGROV1 ovarian = tested on: IGROV1 ovarian
KM12 colon = tested on: KM12 colon
OVCAR-5 ovarian = tested on: OVCAR-5 ovarian
OVCAR-8 ovarian = tested on: OVCAR-8 ovarian
SF-268 CNS = tested on: SF-268 CNS
U251 CNS = tested on: U251 CNS
UACC-257 melanoma = tested on: UACC-257 melanoma
UACC-62 melanoma = tested on: UACC-62 melanoma

Structure (SMILES) | TGI (A498 renal) [µM] | TGI (HCT-15 colon) [µM] | TGI (IGROV1 ovarian) [µM] | TGI (KM12 colon) [µM] | TGI (OVCAR-5 ovarian) [µM] | TGI (OVCAR-8 ovarian) [µM] | TGI (SF-268 CNS) [µM] | TGI (U251 CNS) [µM] | TGI (UACC-257 melanoma) [µM] | TGI (UACC-62 melanoma) [µM]
O=C1C(=O)C(CCCO)(CCCO)CCCCCCCCC1(CCCO)CCCO | > 100 | > 100 | > 100 | > 100 | > 100 | > 100 | > 100 | > 100 | > 100 | > 100
CCCCC[C@@H]1OC(=O)[C@@]2(CC3c4ccccc4C2c2ccccc23)[C@H]1C(=O)OC | 82.5 | > 100 | > 100 | > 100 | > 100 | > 100 | > 100 | > 100 | 86.4 | > 100
COc1ccc(C2=C(N)c3ccccc3C2=O)cc1 | > 100 | > 100 | > 100 | > 100 | > 100 | > 100 | > 100 | > 100 | > 100 | > 100
CNc1ccc([N+](=O)[O-])cc1C(=O)N1CCC[C@H]1CO | > 100 | > 100 | > 100 | > 100 | > 100 | > 100 | > 100 | > 100 | > 100 | > 100
CCCCCCCCCCCOCCC1C(C(C)OCCN2CCCC2)OC2OC(C)(C)OC21 (stereo not given) | 28.5 | 4.35 | 6.59 | 1.78 | 8.94 | 11.3 | 16 | 5.72 | 3.78 | 3.28
Cc1cccc(/C=N/NC(=S)NC(C)(C)C)n1 | > 100 | > 100 | > 100 | > 100 | > 100 | > 100 | > 100 | > 100 | > 100 | > 100
COC(=O)[C@]12CCC(=O)N1[C@H](C(=O)O)Cc1c2[nH]c2ccccc12 | > 100 | > 100 | > 100 | > 100 | > 100 | > 100 | > 100 | > 100 | > 100 | > 100
CN(C)CCCN1C(=O)N(CCCN(C)C)c2c3cc(O)ccc3nc3c([N+](=O)[O-])ccc1c23 | 40.3 | > 100 | 21.3 | 29.8 | > 100 | 37.2 | 26.3 | 30.2 | > 100 | 27.3
CC(CN(C)C)C(O)(c1ccccc1)c1ccccc1 (stereo not given) | > 100 | > 100 | > 100 | > 100 | > 100 | > 100 | > 100 | > 100 | > 100 | > 100
COc1cc2c(cc1OCc1ccccc1)NC(=O)[C@@H]1C[C@@H](O)CN1C2=O | > 100 | > 100 | > 100 | > 100 | > 100 | > 100 | > 100 | > 100 | > 100 | > 100
Cn1c(=O)n2n(c1=O)C1C(=CC2)C2C=CC1n1c(=O)n(C)c(=O)n12 (stereo not given) | > 100 | > 100 | > 100 | > 100 | > 100 | > 100 | > 100 | > 100 | > 100 | > 100
C=C1C(=O)OC2C1CC1OC2C(C)CCC/C(C)=C\CCC1(C)O (stereo not given) | 60.3 | 63.6 | 49.5 | 59 | 124 | 31.4 | 51.8 | > 91.1 | 72.8 | 26.4
O=C(NC(Cc1c[nH]c2ccccc12)C(=O)O)/C(=C/c1ccccc1)NC(=O)c1ccccc1 (stereo not given) | > 100 | > 100 | > 100 | > 100 | > 100 | > 100 | > 100 | > 100 | > 100 | > 100
CCOC(=O)C1C2C1C1C(C(=O)OCC)C21 (stereo not given) | > 100 | > 100 | > 100 | > 100 | > 100 | > 100 | > 100 | > 100 | > 100 | > 100
O=c1[nH]nc(Cc2ccc([N+](=O)[O-])cc2)[nH]1 | > 100 | > 100 | > 100 | > 100 | > 100 | > 100 | > 100 | > 100 | > 100 | > 100
COc1ccc(N2C(=O)CSC2c2cc(OC)c(OC)c(OC)c2)cc1 (stereo not given) | 55.3 | 44.4 | > 100 | 32.9 | 73.9 | > 100 | > 100 | 39 | 28.9 | 20.9
COC(=O)C1CC(C=O)=C(SC)N1 (stereo not given) | > 50 | > 50 | > 50 | > 50 | > 50 | > 50 | > 50 | > 50 | > 50 | > 50
NC(=O)Nc1n[nH]c(-c2ccccc2)n1 | > 100 | > 100 | > 100 | > 100 | > 100 | > 100 | > 100 | > 100 | > 100 | > 100
